Results on nine compounds are retold here after PubChem BioAssay (NCI).

Among the test systems are M14 melanoma; NCI-H460 lung; COLO 205 colon; LOX IMVI melanoma; SF-539 CNS; NCI/ADR-RES ovarian; 786-0 renal; SW-620 colon; A498 renal; HCC-2998 colon.
Common to all, as to assay: DTP human tumour cell line panel, 48 h

Several values for one entry are separate records, joined by “and”; a condition that tells them apart may be missing. Equal values may be shown once.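 Dose response: 5 concentrations. Exposure: 48 h. Format: 96-well plates. Endpoint: linear interpolation; highest concentration if not reached. GI50 is the concentration that inhibits growth by half. TGI is the concentration that stops growth completely.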 Some results are limits rather than exact numbers.

Regarding `CCOC(=O)CCC(NC(=O)c1ccc(Oc2nc3cc(N)cc(N)c3nc2-c2ccccc2)cc1)C(=O)OCC` (centres undefined), the GI50 in the experiment with M14 melanoma is 40 µM; in the experiment with NCI-H460 lung it was 96.2 µM; in the experiment on COLO 205 colon it was 29.9 µM; with LOX IMVI melanoma, 11.9 µM; in the experiment with SF-539 CNS it was 34 µM; with NCI/ADR-RES ovarian it was 27.5 µM. Moreover, the GI50 is 89 µM with 786-0 renal and 29.5 µM with SW-620 colon. Moreover, the total growth inhibition concentration (TGI) in the experiment with M14 melanoma is more than 100 µM; in the experiment with NCI-H460 lung, more than 100 µM; in the experiment with COLO 205 colon it was more than 100 µM; in the experiment with LOX IMVI melanoma, 26.1 µM; in the experiment on SF-539 CNS, more than 100 µM; with NCI/ADR-RES ovarian it was more than 100 µM. Further, the TGI in the experiment with 786-0 renal and in the experiment with SW-620 colon was more than 100 µM each time.

For `O=C1CC[C@@H]2[C@H]3CCC(=O)c4c3c(c3cccc(O)c3c4O)O[C@@]23C(=O)c2cccc(O)c2C(O)=C13`, the GI50 with NCI-H460 lung, in the experiment on COLO 205 colon, with LOX IMVI melanoma, in the experiment with SF-539 CNS, in the experiment with NCI/ADR-RES ovarian and with 786-0 renal was more than 100 µM throughout. For the same compound, the GI50 in the experiment with SW-620 colon was more than 100 µM. The total growth inhibition concentration (TGI) with NCI-H460 lung, in the experiment on COLO 205 colon, with LOX IMVI melanoma, in the experiment with SF-539 CNS, in the experiment with NCI/ADR-RES ovarian and in the experiment with 786-0 renal was more than 100 µM each time. In the experiment with SW-620 colon, this compound returned a total growth inhibition concentration (TGI) of more than 100 µM.

As for `NC(=O)c1c(-c2ccccc2)c(-c2ccccc2)cc2c(=O)c3ccccc3[nH]c12`, the TGI in the experiment on M14 melanoma was more than 100 µM; with A498 renal, 39.7 µM; in the experiment with NCI-H460 lung, 76.8 µM; in the experiment with COLO 205 colon, more than 100 µM; in the experiment on HCC-2998 colon, more than 100 µM; in the experiment with LOX IMVI melanoma it was more than 100 µM. The TGI in the experiment on SF-539 CNS is 37.4 µM; in the experiment on 786-0 renal, 21.5 µM; in the experiment on SW-620 colon, more than 100 µM.

For the compound `COc1ccc(-c2cc(-c3ccco3)c(C#N)c(=O)n2C2OC(COC(C)=O)C(OC(C)=O)C(OC(C)=O)C2OC(C)=O)cc1` (centres undefined), the GI50 was > 100 µM and 23.2 µM in the experiment on M14 melanoma; > 100 µM and 22 µM in the experiment with A498 renal; 35.8 µM and 8.76 µM in the experiment with NCI-H460 lung; 59.4 µM and 14.1 µM with LOX IMVI melanoma; > 100 µM and 11.7 µM in the experiment on SF-539 CNS; > 100 µM and 29.3 µM in the experiment with 786-0 renal. In addition, the TGI in the experiment on M14 melanoma was > 100 µM and 52.5 µM; with A498 renal, > 100 µM and 75.8 µM; in the experiment with NCI-H460 lung, > 100 µM and 81 µM; in the experiment with COLO 205 colon, more than 100 µM; in the experiment on HCC-2998 colon, more than 100 µM; in the experiment with LOX IMVI melanoma, > 100 µM and 59.6 µM. Besides, the TGI with SF-539 CNS was > 100 µM and 23.9 µM; in the experiment on 786-0 renal, more than 100 µM; with SW-620 colon, more than 100 µM.

Turning to `COC(=O)N1C=CC2=C(C)C3Nc4ccccc4C3C(C)=C2C1` (centres undefined), the total growth inhibition concentration (TGI) in the experiment with M14 melanoma was 8.29 µM; in the experiment on A498 renal, more than 100 µM; in the experiment with NCI-H460 lung, 11.6 µM; in the experiment on COLO 205 colon, 6.66 µM; with HCC-2998 colon, 11.9 µM; in the experiment with LOX IMVI melanoma, 20.1 µM. Besides, the TGI was determined as 17.2 µM in the experiment on SF-539 CNS, 2.16 µM in the experiment with 786-0 renal and 21.9 µM in the experiment with SW-620 colon.

In the case of `NNC(=S)N/N=C(\c1nc2ccc(Cl)cc2[nH]c1=O)C(O)c1cccc([N+](=O)[O-])c1` (centres undefined), the TGI with M14 melanoma was more than 88 µM; with A498 renal it was more than 100 µM; with NCI-H460 lung it was more than 100 µM; in the experiment on COLO 205 colon, more than 58.4 µM; in the experiment with HCC-2998 colon, more than 100 µM; in the experiment with LOX IMVI melanoma, more than 56.6 µM. Also, the TGI was more than 47.5 µM with SF-539 CNS, more than 62.5 µM with 786-0 renal and 41.9 µM in the experiment on SW-620 colon.

`CN(C)c1ccc(-c2nc(N)nc3c2CCCC3)cc1`: the TGI in the experiment on M14 melanoma, in the experiment with A498 renal, in the experiment on NCI-H460 lung, with COLO 205 colon, in the experiment with HCC-2998 colon and in the experiment with LOX IMVI melanoma was more than 100 µM in each case. In addition, the total growth inhibition concentration (TGI) in the experiment on SF-539 CNS, in the experiment with 786-0 renal and in the experiment on SW-620 colon was more than 100 µM in each case.

In the case of `O=C1/C(=C/c2ccccc2)CN(C(=O)/C=C/c2ccccc2)C/C1=C\c1ccccc1`, the TGI in the experiment on M14 melanoma was found to be 12.8 µM; in the experiment with A498 renal, 92 µM; in the experiment with NCI-H460 lung it was 39.3 µM; in the experiment with COLO 205 colon, 19.4 µM; in the experiment with HCC-2998 colon, 14.2 µM; in the experiment on LOX IMVI melanoma it was 7.1 µM. For the same compound, the total growth inhibition concentration (TGI) in the experiment with SF-539 CNS came out at 24.8 µM; in the experiment with 786-0 renal, 8.27 µM; in the experiment with SW-620 colon, 5.28 µM.

`Cc1ccc(C)c(NC(=O)C(=O)C(C2C(C)CC(=O)C2CC(=O)O)[N+](=O)[O-])c1` (centres undefined): the TGI in the experiment on M14 melanoma, with A498 renal, in the experiment with NCI-H460 lung, in the experiment on COLO 205 colon, with HCC-2998 colon and in the experiment on LOX IMVI melanoma was more than 100 µM throughout. For the same compound, the TGI with SF-539 CNS, in the experiment on 786-0 renal and with SW-620 colon was more than 100 µM in each case.

Usually GI50 stands for the concentration at which growth is held to half of that of the control. A word on the TGI: it is the concentration at which net growth stops. High values mean less potent growth arrest, low ones more potent growth arrest.
